We go through 24 molecules from ChEMBL document CHEMBL4477270, “Design, synthesis, and protein methyltransferase activity of a unique set of constrained amine containing compounds” (Bioorg Med Chem Lett, 2016).

Assay [1] addresses T1, N-lysine methyltransferase KMT5A (Homo sapiens) (UniProt Q9NQR1).
T1 sequence (whole entry): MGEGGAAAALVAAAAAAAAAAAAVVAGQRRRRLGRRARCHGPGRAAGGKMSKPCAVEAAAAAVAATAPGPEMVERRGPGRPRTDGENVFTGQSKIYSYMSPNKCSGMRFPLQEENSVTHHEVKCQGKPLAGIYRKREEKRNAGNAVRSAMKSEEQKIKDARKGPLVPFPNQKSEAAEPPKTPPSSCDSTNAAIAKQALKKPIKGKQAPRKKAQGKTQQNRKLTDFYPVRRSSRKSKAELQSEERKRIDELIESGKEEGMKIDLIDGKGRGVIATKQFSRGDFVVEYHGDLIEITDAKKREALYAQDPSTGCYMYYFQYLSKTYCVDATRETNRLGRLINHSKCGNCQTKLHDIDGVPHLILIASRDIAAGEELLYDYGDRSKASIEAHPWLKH
The experiment in a line: Inhibition of SETD8 (unknown origin) using biotin-labeled histone H4 (1 to 24 residues) as substrate assessed as residual activity at 50 uM in presence of [3H-Me]SAM by scintillation proximity assay relative to control. In general terms: SPA uses beads or plates that emit light when radiolabelled molecules are held near them.

The target of assay [2] is Histone-lysine N-methyltransferase SUV39H2 (Homo sapiens) (UniProt Q9H5I1). Kind of assay: Inhibition of SUV39H2 (unknown origin) using biotin-labeled histone substrate assessed as residual activity at 50 uM in presence of [3H-Me]SAM by scintillation proximity assay relative to control.
Sequence of Histone-lysine N-methyltransferase SUV39H2 (Homo sapiens) (Q9H5I1 whole entry): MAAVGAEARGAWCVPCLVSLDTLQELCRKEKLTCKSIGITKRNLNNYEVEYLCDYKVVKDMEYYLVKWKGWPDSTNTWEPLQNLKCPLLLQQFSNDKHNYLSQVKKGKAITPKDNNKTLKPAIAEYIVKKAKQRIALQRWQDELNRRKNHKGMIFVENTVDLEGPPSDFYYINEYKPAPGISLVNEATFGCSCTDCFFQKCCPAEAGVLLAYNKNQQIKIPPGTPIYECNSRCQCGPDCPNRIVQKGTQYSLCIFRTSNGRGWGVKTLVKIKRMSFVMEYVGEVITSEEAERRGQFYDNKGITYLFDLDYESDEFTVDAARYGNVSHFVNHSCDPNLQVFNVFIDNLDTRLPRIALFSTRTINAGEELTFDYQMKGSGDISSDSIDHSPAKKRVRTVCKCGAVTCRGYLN
The target in assay [3] is T2, Histone-lysine N-methyltransferase NSD2 (Homo sapiens) (UniProt O96028).
T2 sequence (whole entry): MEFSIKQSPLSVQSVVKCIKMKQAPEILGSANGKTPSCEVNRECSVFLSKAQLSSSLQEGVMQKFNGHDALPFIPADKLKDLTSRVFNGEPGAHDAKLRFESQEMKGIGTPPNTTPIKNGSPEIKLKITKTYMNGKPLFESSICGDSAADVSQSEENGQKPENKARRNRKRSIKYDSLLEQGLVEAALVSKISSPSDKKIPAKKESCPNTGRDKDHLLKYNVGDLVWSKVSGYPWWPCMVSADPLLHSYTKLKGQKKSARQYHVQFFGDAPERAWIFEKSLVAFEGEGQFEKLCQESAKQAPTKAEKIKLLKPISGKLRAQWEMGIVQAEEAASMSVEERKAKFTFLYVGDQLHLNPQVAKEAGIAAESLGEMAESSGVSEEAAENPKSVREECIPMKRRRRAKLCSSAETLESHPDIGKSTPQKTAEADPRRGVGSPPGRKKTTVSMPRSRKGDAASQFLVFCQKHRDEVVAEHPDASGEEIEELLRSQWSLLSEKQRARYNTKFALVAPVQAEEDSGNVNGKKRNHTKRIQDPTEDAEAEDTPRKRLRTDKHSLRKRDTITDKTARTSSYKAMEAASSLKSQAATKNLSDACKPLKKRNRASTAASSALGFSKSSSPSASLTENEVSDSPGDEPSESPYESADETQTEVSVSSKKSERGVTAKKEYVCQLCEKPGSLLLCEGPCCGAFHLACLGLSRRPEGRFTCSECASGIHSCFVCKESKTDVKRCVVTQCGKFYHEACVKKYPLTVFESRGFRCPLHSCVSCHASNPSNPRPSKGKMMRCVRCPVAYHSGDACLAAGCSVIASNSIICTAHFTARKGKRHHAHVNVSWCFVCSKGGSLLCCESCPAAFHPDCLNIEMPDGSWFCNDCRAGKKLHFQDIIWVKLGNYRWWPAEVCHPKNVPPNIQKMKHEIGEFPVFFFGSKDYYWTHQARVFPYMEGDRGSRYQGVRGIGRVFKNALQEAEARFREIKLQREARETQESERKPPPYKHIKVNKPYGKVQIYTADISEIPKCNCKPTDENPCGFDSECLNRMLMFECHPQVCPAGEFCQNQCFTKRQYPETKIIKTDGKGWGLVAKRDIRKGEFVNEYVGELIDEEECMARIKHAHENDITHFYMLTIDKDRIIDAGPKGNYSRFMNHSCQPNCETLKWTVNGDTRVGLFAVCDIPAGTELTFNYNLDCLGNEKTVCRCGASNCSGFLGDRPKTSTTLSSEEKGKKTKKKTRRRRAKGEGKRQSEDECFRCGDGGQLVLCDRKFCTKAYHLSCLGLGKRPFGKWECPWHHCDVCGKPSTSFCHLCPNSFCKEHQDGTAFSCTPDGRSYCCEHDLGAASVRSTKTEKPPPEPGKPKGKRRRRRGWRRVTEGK
Kind of assay: Inhibition of NSD2 (unknown origin) using biotin-labeled histone substrate assessed as residual activity at 50 uM in presence of [3H-Me]SAM by scintillation proximity assay relative to control.

Assay [4] has as its target Protein arginine N-methyltransferase 6 (Homo sapiens) (UniProt Q96LA8). The experiment in a line: Inhibition of PRMT6 (unknown origin) using biotin-labeled histone substrate assessed as residual activity at 50 uM in presence of [3H-Me]SAM by scintillation proximity assay relative to control.

Sequence of Protein arginine N-methyltransferase 6 (Homo sapiens) (Q96LA8 whole entry, looked up): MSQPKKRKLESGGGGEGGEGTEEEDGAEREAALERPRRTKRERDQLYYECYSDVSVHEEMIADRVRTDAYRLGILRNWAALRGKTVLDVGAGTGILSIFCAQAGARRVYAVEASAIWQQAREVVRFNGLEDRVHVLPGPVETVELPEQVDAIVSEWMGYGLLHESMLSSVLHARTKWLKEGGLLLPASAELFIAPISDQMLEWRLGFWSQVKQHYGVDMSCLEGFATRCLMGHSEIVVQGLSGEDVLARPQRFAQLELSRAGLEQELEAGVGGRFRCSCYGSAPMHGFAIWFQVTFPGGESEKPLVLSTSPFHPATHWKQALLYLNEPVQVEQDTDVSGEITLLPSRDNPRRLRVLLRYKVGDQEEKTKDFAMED

Take `CN1CCCCC12CCCN(C(=O)c1cccc(Br)c1)C2` (stereo unspecified): the Activity in assay [1] was 73%; in assay [2] it was 91%; in assay [3], 101%; in assay [4] it was 89%.
For `O=C(c1cccc(Br)c1)N1CCC2CNCC2C1` (stereo unspecified), the Activity in assay [1] is 103%; in assay [2], 95%; in assay [3] it was 97%; in assay [4], 108%.
For the molecule `O=C(c1cccc(Br)c1)N1CCCC2(CCNCC2)C1`, the Activity was 105% in assay [1], 95% in assay [2], 104% in assay [3] and 112% in assay [4].
As for `O=C(c1cccc(Br)c1)N1C[C@@H]2CC3CCCCN3[C@@H]2C1` (stereo partly specified), the Activity was 106% in assay [1], 108% in assay [2], 96% in assay [3] and 103% in assay [4].
For the molecule `O=C(c1cccc(Br)c1)N1CCC2(CCNCC2)CC1`, the Activity stood at 101% in assay [1], 95% in assay [2], 103% in assay [3] and 98% in assay [4].
The like results for `CN1CCC2(CCCN(C(=O)c3cccc(Br)c3)C2)C1` (stereo unspecified) were, in that order, 106%, 84%, 105% and 105%.
The like results for `O=C(c1cccc(Br)c1)N1C[C@@H]2CC3CCCN3[C@@H]2C1` (stereo partly specified) were, in that order, 104%, 102%, 101% and 107%.
The like results for `O=C(c1cccc(Br)c1)N1C[C@H]2CCCN[C@H]2C1` were, in that order, 90%, 107%, 89% and 106%.
On to `O=C(c1cccc(Br)c1)N1CC[C@@H]2[C@@H](CC3CCCCN32)C1` (stereo partly specified), for which the Activity in assay [1] was found to be 104%; in assay [2], 113%; in assay [3] it was 98%; in assay [4] it was 101%.
The like results for `CN1CCCC2(CCCN2C(=O)c2cccc(Br)c2)C1` (stereo unspecified) were, in that order, 106%, 92%, 105% and 98%.
As for `CN1CC[C@H]2CN(C(=O)c3cccc(Br)c3)C[C@H]21`, the Activity in assay [1] turned out to be 105%; in assay [2], 101%; in assay [3] it was 102%; in assay [4], 109%.
The like results for `CN1CCC[C@@H]2CN(C(=O)c3cccc(Br)c3)C[C@@H]21` were, in that order, 45%, 101%, 95% and 106%.
For `O=C(c1cccc(Br)c1)N1C[C@@H]2CCN[C@@H]2C1` the same measures were 105%, 88%, 94% and 102%.
The like results for `CN1CCC2(CCCN2C(=O)c2cccc(Br)c2)CC1` were, in that order, 91%, 97%, 99% and 104%.
Regarding `O=C(c1cccc(Br)c1)N1CC[C@H]2NCC[C@H]2C1`, the Activity in assay [1] was found to be 113%; in assay [2], 83%; in assay [3], 97%; in assay [4] it was 108%.
For `CN1CCCC12CCN(C(=O)c1cccc(Br)c1)CC2` the same measures were 103%, 94%, 99% and 107%.
`O=C(c1cccc(Br)c1)N1CCCC2(CCCCN2)C1` (stereo unspecified): the Activity in assay [1] was 106%; in assay [2], 91%; in assay [3], 96%; in assay [4], 100%.
In the case of `C[N+]1(C)CCCCC12CCN(C(=O)c1cccc(Br)c1)CC2`, the Activity in assay [1] is 49%; in assay [2], 114%; in assay [3], 99%; in assay [4] it was 98%.
For `CN1CCCC12CCCN(C(=O)c1cccc(Br)c1)C2` (stereo unspecified) the same measures were 96%, 99%, 99% and 103%.
For `O=C(c1cccc(Br)c1)N1CCC[C@@H]2CNC[C@@H]21` the same measures were 103%, 104%, 101% and 109%.
For `CN1CCCCC12CCN(C(=O)c1cccc(Br)c1)CC2` the same measures were 43%, 111%, 103% and 103%.
Turning to `CN1CCCC2(CCCN(C(=O)c3cccc(Br)c3)C2)C1` (stereo unspecified), the Activity in assay [1] amounted to 107%; in assay [2] it was 84%; in assay [3], 101%; in assay [4] it was 101%.
Regarding `CN1C[C@H]2CCCN(C(=O)c3cccc(Br)c3)[C@H]2C1`, the Activity is 85% in assay [1], 77% in assay [2], 96% in assay [3] and 106% in assay [4].
For `CN1CCC2(CC1)CCN(C(=O)c1cccc(Br)c1)CC2` the same measures were 91%, 116%, 99% and 109%.
